Measurements as given in patent US10695283B2, “Extract of Greyia radlkoferi and use thereof” (UNIVERSITY OF PRETORIA, priority 2012, dated 2020).

Legend:
tyrosinase = tyrosinase inhibition; assay type: biochemical; details: for individual tyrosinase inhibitory capability: isolated compounds; for tyrosinase 50% inhibitory concentration (IC50) of the individual phenolic compound: compound used in isolation
melanocyte cells = assay: inhibition of melanin release by melanocyte cells in vitro; assay type: cell-based
Excerpt: The inhibition of hyper-pigmentation is not restricted to inhibition at the enzyme level but melanin inhibition can also be achieved in vitro by the inhibition of melanin release by melanocyte cells.

Row | SMILES | individual tyrosinase inhibitory capability (tyrosinase) | tyrosinase 50% inhibitory concentration (IC50) (tyrosinase; L-tyrosine and DOPA used as substrates) [µg/mL] | tyrosinase 50% inhibitory concentration (IC50) of the individual phenolic compound (tyrosinase) [µg/mL] | melanin reduction (melanocyte cells; at 3.125 μg/ml) [%] | melanin inhibited (melanocyte cells; at concentrations as low as 3.1 μg/ml)
1 | O=c1c(-c2ccc(O)cc2)coc2cc(O)cc(O)c12 [Compound C5, 4′,5′7-trihydroxyisoflavone] | exhibit individual tyrosinase inhibitory capabilities | – | – | – | –
2 | O=C(/C=C/c1ccc(O)cc1)c1ccc(O)cc1O [isoliquirtigenin, reference compound] | – | 896.88 | – | – | –
3 | O=C1C[C@@H](c2ccccc2)Oc2cc(O)cc(O)c21 [Compound C1, 5,7-dihidroxyflavone[(2S)-pinocembrin]] | exhibit individual tyrosinase inhibitory capabilities | – | – | – | –
4 | COc1cc(O)c(C(=O)CCc2ccccc2)c(O)c1 [Compound C2, 2′,6′-dihydroxy-4′-methoxydihydrochalcone] | exhibit individual tyrosinase inhibitory capabilities | – | 21.42 | 20 | –
5 | O=C(CCc1ccccc1)c1c(O)cc(O)cc1O [Compound C3, 2′,4′,6′-trihydroxyhydrochalcone] | exhibit individual tyrosinase inhibitory capabilities | – | 17.86 | – | –
6 | O=c1c(O)c(-c2ccccc2)oc2cc(O)cc(O)c12 [Compound C4, 3,5,7-trihydroxyflavone] | exhibit individual tyrosinase inhibitory capabilities | – | 2.23 | – | more than 50%
